Results from patent EP0160115A1, “Growth stimulating food additive for animals” (SPOFA Spojené Podniky Pro Zdravotnickou Vyrobu, priority 1984, dated 1985).

Key:
Vibrio coli = assay: Treatment of bloody diarrhoea in pre-fattening pigs via supplemented feed (14 days); format: in vivo, Vormastschweine
From the text: Die Versuche wurden in einem Schweinemastbetrieb durchgeführt, bei dem ständig bei 5 bis 15 der Vormastschweine (Rasse BU x PC + L) von etwa 50 kg Gewicht, die in Koben zu 10 bis 15 Tieren untergebracht waren, blutige Durchfälle auftraten.
(§1) Die Versuchstiere wurden in 4 Gruppen aufgeteilt und während der gesamten Versuchsdauer von 14 Tagen mit dem Vormastschweine-Futtergemisch SOL unter folgender Wirkstoffzugabe behandelt: • Gruppe I (Kontrollgruppe): Futtergemisch allein Gruppe II: Phthalazol, 100 ppm • Gruppe III: Cyadox, 100 ppm • Gruppe IV: Cyadox und Phthalazol, je 100 ppm.

[1] = Ratten, p.o.; cited from earlier work
[2] = Weight gain of pre-fattening pigs on supplemented feed in a herd with bloody diarrhoea (14 days); format: in vivo, Vormastschweine; details: 100 ppm of each active in feed; for Gesamtzuwachs x̄ (kg): control 8,95; for Endgewicht x̄ (kg): control 59,43; for Tageszuwachs: control 639; for Zuwachsindex (%): control = 100
From the text: Die Versuche wurden in einem Schweinemastbetrieb durchgeführt, bei dem ständig bei 5 bis 15 der Vormastschweine (Rasse BU x PC + L) von etwa 50 kg Gewicht, die in Koben zu 10 bis 15 Tieren untergebracht waren, blutige Durchfälle auftraten. Histologisch und mikrobiologisch wurde als Erreger der Durchfallerkrankung Vibrio coli festgestellt.
as §1

[3] = Fattening trial in early-weaned piglets with supplemented feed (4 weeks); format: in vivo, Ferkel; details: 28 days; for Zuwachsindex (%): 100 ppm of each active in feed; for Zuwachsindex (%) / Ausnutzungsindex (%): control = 100,0; for Ausnutzungsindex (%), difference from control (in brackets) / Ausnutzungsindex (%) / Futtermittel-Ausnutzung, x̄: 100 ppm of each active; for Futtermittel-Ausnutzung, x̄: feed consumption per unit of gain, control 2,0
From the text: Frühabgesetzte Ferkel (Mischlinge des weißen edlen Landschweinsx Landrasse), die innerhalb einer Zeitspanne von 6 Tagen geboren waren, wurden aus der Gebärstation am S. Tage nach dem Absetzen in die Versuchsanlage gebracht. Die Ferkel wurden in Gruppen von je 8 bis 12 Tieren in Boxen untergebracht, die mit Rostböden versehen und durch hölzerne Bodenplatten beheizt waren. Nach 7 Tagen Anpassungszeit wurde der eigentliche Mastversuch begonnen. Über die gesamte Versuchsdauer von 4 Wochen wurde in allen Gruppen das Futtergemishc ? OS 2 für früh abgesetzte Ferkel verfüttert, das durch Zusatz der entsprechenden Prämixe jeweils mit folgenden Wirkstoffen angereichert wurde: • Gruppe I (Kontrollgruppe): Futtergemisch allein ohne Zusatz • Gruppe II: Cyadox, 100 ppm (100 mg pro kg Futtergemisch) • Gruppe III: Roh-Tylo-sin, 100 ppm reine Tylosinbase • Gruppe IV : Cyadox und Roh-Tylosin, je 100 ppm.
Zu Beginn des Versuchs und am Versuchsende (28. Tag) wurden die Tiere individuell gewogen. Der Futterverbrauch pro Gruppe wurde täglich ermittelt und daraus die Futtermittelausnutzung, dh der Futterverbrauch pro Zuwachseinheit, berechnet. Ebenso wurde der Allgemeinzustand der Tiere täglich verfolgt.

[4] = 100 ppm of each active in feed, 14 days

Compound | Anzeichen blutiger Durchfälle (Vibrio coli; [4]) | Heilungsgrad (Vibrio coli; [4]) | LD50 [1] | Gesamtzuwachs x̄ (kg) [2] | Endgewicht x̄ (kg) [2] | Tageszuwachs [2] | Zuwachsindex (%) [2] | Zuwachsindex (%) [3] | Ausnutzungsindex (%), difference from control (in brackets) [3] | Ausnutzungsindex (%) [3] | Futtermittel-Ausnutzung, x̄ [3] | Schweine notgeschlachtet wegen unbefriedigenden Allgemeinzustands (Vibrio coli; at end of trial, group of 20 pigs, 100 ppm)
N#CCC(=O)NN=Cc1c[n+]([O-])c2ccccc2[n+]1[O-] [Cyadox, 2-Formylchinoxalin-1,4-dioxy-cyanacetyl-hydrazon] | keine Anzeichen blutiger Durchfälle | 100 | 15000 mg/kg | 10,10 kg | 57,90 kg | 721 g | 112,8% | 109,8% | -0,5% | 99,5% | 1,99 | 
O=C(O)c1ccccc1C(=O)Nc1ccc(S(=O)(=O)Nc2nccs2)cc1 [Phthalazol] |  |  |  | 8,99 kg | 59,61 kg | 642 g | 100,5% |  |  |  |  | 5
CC[C@H]1OC(=O)C[C@@H](O)[C@H](C)[C@@H](O[C@@H]2O[C@H](C)[C@@H](O[C@H]3C[C@@](C)(O)[C@@H](O)[C@H](C)O3)[C@H](N(C)C)[C@H]2O)[C@@H](CC=O)C[C@@H](C)C(=O)/C=C/C(C)=C/[C@@H]1CO[C@@H]1O[C@H](C)[C@@H](O)[C@@H](OC)[C@H]1OC [Tylosin] |  |  |  |  |  |  |  | 125,9% | -7,8% | 92,2% | 1,90 | 
